Values quoted from earlier work as cited in patent publication US11648213B2, “Transdermal therapeutic system containing asenapine” (LTS LOHMANN THERAPIE-SYSTEME AG, priority 2018, dated 2023).

How the values were obtained:
[1] = in vivo
[2] = target: serotonin 5-HT2A receptors (Homo sapiens, UniProt P28223); conditions: antagonist
Chain of serotonin 5-HT2A receptors (P28223 whole entry): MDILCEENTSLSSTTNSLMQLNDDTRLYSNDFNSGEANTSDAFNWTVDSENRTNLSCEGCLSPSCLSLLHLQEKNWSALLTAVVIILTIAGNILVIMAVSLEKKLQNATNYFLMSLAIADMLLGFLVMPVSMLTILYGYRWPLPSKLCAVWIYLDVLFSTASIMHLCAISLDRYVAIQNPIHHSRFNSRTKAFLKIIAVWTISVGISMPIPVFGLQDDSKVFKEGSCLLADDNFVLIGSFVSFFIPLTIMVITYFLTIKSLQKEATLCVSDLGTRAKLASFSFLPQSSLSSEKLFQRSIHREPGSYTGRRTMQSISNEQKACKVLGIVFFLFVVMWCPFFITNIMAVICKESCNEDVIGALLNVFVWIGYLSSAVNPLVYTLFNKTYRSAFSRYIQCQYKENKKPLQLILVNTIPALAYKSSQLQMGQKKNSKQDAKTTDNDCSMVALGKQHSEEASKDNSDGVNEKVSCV

- terminal disposition half-life (following sublingual administration, therapeutic doses): ≥ 24 h
- bioavailability (if ingested): < 2%
- Somnolence and anxiety (very common), share of the patients [1]: ≥ 10%
- affinity to serotonin 5-HT2A receptors [2]: high affinity
Compound: CN1C[C@H]2c3ccccc3Oc3ccc(Cl)cc3[C@@H]2C1 (relative stereo) [asenapine, (3aRS,12bRS)-rel-5-chloro-2,3,3a,12b-tetrahydro-2-methyl-1H-dibenz[2,3:6,7]oxepino[4,5-c]pyrrole]
